# Measurements as given in PMC5734604 (Journal of Medicinal Chemistry, 2017).
# “Also recorded” adds a separate entry of the source.
# Tests used:
# human CB1 receptor [1] = molecular target: T1, human CB1 receptor (Homo sapiens, UniProt P21554); assay: biochemical; format: binding; details: for residence time: read-out: RT (residence time)
# human CB1 receptor [2] = molecular target: T1, human CB1 receptor; assay: [35S]GTPγS binding antagonism assay, hCB1 HEK-293 membranes; format: biochemical; details: recombinant human CB1 receptors on HEK-293 cell membranes, 30 °C; SD (n = 2) or SEM (n ≥ 3)
# human CB1 receptor [3] = molecular target: T1, human CB1 receptor; details: association at 30 °C
# human CB1 receptor [4] = molecular target: T1, human CB1 receptor
# T1 sequence (P21554 whole entry): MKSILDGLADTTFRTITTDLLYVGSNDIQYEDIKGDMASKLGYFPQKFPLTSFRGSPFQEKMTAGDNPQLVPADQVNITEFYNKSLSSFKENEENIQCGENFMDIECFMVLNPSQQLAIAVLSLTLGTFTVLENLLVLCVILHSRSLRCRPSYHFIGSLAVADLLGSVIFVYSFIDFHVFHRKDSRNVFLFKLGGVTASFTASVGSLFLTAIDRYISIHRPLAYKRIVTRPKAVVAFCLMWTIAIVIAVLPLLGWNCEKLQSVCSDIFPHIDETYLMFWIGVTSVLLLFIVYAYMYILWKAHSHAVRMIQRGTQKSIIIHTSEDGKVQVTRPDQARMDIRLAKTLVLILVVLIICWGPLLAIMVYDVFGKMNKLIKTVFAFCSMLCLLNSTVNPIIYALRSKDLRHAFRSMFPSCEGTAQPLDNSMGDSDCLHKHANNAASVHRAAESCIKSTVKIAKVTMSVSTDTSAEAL
Compound,koff (human CB1 receptor [1]) [s⁻¹],kon (human CB1 receptor [1]) [M⁻¹ s⁻¹],residence time (human CB1 receptor [1]) [min],[35S]GTPγS binding pIC50 ± SD or SEM (human CB1 receptor [2]),other results
"CCCS(=O)(=O)Oc1ccc(-n2c(-c3ccc(Cl)cc3Cl)nc(C(=O)NN3CCCCC3)c2C)cc1 [11b, 4-(2-(2,4-Dichlorophenyl)-5-methyl-4-(piperidin-1-ylcarbamoyl)-1H-imidazol-1-yl)phenyl propane-1-sulfonate]",0.00022,300000,78 ± 5,,
"CCCCS(=O)(=O)Oc1ccc(-n2c(-c3ccc(Cl)cc3Cl)nc(C(=O)NN3CCCCC3)c2C)cc1 [11e, 4-(2-(2,4-Dichlorophenyl)-5-methyl-4-(piperidin-1-ylcarbamoyl)-1H-imidazol-1-yl)phenyl butane-1-sulfonate]",,,,8.9 ± 0.05,
"Cc1c(C(=O)NN2CCCCC2)nc(-c2ccc(Cl)cc2Cl)n1-c1ccc(OS(=O)(=O)CCC(C)C)cc1 [11g, 4-(2-(2,4-Dichlorophenyl)-5-methyl-4-(piperidin-1-ylcarbamoyl)-1H-imidazol-1-yl)phenyl 3-methylbutane-1-sulfonate]",,,,8.9 ± 0.1,
"Cc1c(C(=O)Nc2ccc(F)nc2)nc(-c2ccc(Cl)cc2Cl)n1-c1ccc(OS(=O)(=O)CCC(F)(F)F)cc1 [14f, 4-(2-(2,4-Dichlorophenyl)-4-(6-fluoropyridin-3-ylcarbamoyl)-5-methyl-1H-imidazol-1-yl)phenyl 3,3,3-trifluoropropane-1-sulfonate]",0.00027,720000,62 ± 10,,
CCCCCCC(C)(C)c1ccc([C@@H]2C[C@H](O)CC[C@H]2CCCO)c(O)c1 [CP55940],,,,,time at which binding approached equilibrium (human CB1 receptor [3]): approximately 25 min
"Cc1c(C(=O)Nc2ccc(C(F)(F)F)cn2)nc(-c2ccc(Cl)cc2Cl)n1-c1ccc(OS(=O)(=O)CCC(F)(F)F)cc1 [compound 28, 4-(2-(2,4-Dichlorophenyl)-5-methyl-4-(5-(trifluoromethyl)pyridin-2-ylcarbamoyl)-1H-imidazol-1-yl)phenyl 3,3,3-trifluoropropane-1-sulfonate]",7.8e-05,350000,260 ± 56,,activity of compound alone (absence of CP55940) (human CB1 receptor [4]): inverse agonism; type of antagonism of CP55940 action (human CB1 receptor [4]): insurmountable antagonism; also recorded: insurmountability
